The target of series [1] is T1, Gloeobacter rhodopsin (GR, Gloeorhodopsin) (Gloeobacter violaceus, UniProt Q7NP59).
T1 construct: gene gll0198
The series can be described thus: UV/VIS absorption of purified pigment. The following applies: covalent (protonated Schiff base, Lys257); 50 mM Tris pH 7, 150 mM NaCl, 0.02% DDM. It counts as binding.

A further series concerns the target Asp121 (UniProt position 121, AYRYVDWLLTV). The series can be described thus: UV-vis. The following applies: 3-mix buffer (starting at pH ca. 12, adjusted downward with HCl); retinal-bound pigment, unphotolysed state; light or dark adaptation not stated.

Here are results for two compounds from article PMC4210194, “Cyanobacterial Light-Driven Proton Pump, Gloeobacter Rhodopsin: Complementarity between Rhodopsin-Based Energy Production and Photosynthesis” (PLoS ONE, 2014).

T1 sequence (Q7NP59 entry or part of it): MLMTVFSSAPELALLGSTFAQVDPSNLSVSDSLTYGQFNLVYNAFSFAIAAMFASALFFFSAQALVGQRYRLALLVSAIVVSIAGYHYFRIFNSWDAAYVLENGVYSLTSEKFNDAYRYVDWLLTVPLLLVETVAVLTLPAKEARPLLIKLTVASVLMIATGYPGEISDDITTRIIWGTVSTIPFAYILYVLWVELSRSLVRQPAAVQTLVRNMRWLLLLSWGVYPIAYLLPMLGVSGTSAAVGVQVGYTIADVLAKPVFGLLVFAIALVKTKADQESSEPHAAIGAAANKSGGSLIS

Turning to `CC1=C(/C=C/C(C)=C/C=C/C(C)=C/C=O)C(C)(C)CCC1` [all-trans retinal], in series [1], the “UV/VIS absorption of purified pigment” value is “expressed in Escherichia coli and bound all-trans retinal to form a pigment”.

“Gloeobacter rhodopsin (GR, Gloeorhodopsin) (Gloeobacter violaceus PCC 7421)” returned a pKa with Asp121 of 5.9.
